Test results from patent publication US6686370B2, “Triazospiro compounds having nociceptin receptor affinity” (Euro-Celtique S.A., priority 1999, dated 2004).

- melting point: 192 to 193 °C
SMILES: O=C1NCN(c2ccccc2)C12CCN(C1CCc3ccccc3C1)CC2 (stereo not shown) [8-[1,2,3,4tetrahydronaphthyl]-1-phenyl-1,3,8-triazospiro[4.5]decan-4-one]
